# Tested on: not listed separately
# Test: Measurement of LogP values by HPLC on reversed phase columns (EEC directive 79/831 Annex V.A8)
# Format: physicochemical
# Details: method [a]: LC-UV, acidic range, 0.1% formic acid in water and acetonitrile as eluent; Table 1
# Protocol: Measurement of Log P values was performed as outlined above.
row,Structure (SMILES),chromatographic logP
1,OC(Cc1cc(Cl)ncc1Cl)(Cn1cncc1Cl)C1(Cl)CC1 (stereo not drawn) [Example I-17],2.18
2,Cc1cc(F)ccc1CC(O)(Cn1cncc1Cl)C1(Cl)CC1 (stereo not drawn) [Example I-155],2.46
3,CC1(C(O)(Cc2cccc(F)c2F)Cn2cncc2C#N)CC1 (stereo not drawn) [Example I-144],2.75
4,Cc1ccc(CC(O)(Cn2cncc2C#N)C2(Cl)CC2)c(F)c1 (stereo not drawn) [Example I-107],2.97
5,N#Cc1cncn1CC(O)(Cc1ccccc1Cl)CC1CC1 (stereo not drawn) [Example I-84],2.84
6,N#Cc1cncn1CC(O)(Cc1ccc(F)c(Cl)c1F)C1(Cl)CC1 (stereo not drawn) [Example I-101],3.17
7,N#Cc1cncn1CC(O)(Cc1ccc(Cl)cc1)C1(Cl)CC1 (stereo not drawn) [Example I-64],3.1

# Tested on: Alternaria brassicae
# Test: In vivo preventive test on Alternaria brassicae (leaf spot on radish), Examples A and R1
# Details: Alternaria brassicae, 144 h, 500 ppm of active ingredient, preventive spray, evaluated 6 days after inoculation, read-out: efficacy
row,Structure (SMILES),pest or weed control at 500 ppm [%]
1,OC(Cc1cc(Cl)ncc1Cl)(Cn1cncc1Cl)C1(Cl)CC1 (stereo not drawn) [Example I-17],90 to 100
2,Cc1cc(F)ccc1CC(O)(Cn1cncc1Cl)C1(Cl)CC1 (stereo not drawn) [Example I-155],70 to 79

# Tested on: Botrytis cinerea
# Test: In vivo preventive test on Botrytis cinerea (grey mould) on gherkin, Examples B, Q1 and R2
# Details: Botrytis cinerea, 500 ppm of active ingredient, preventive spray, evaluated 4 to 5 days after inoculation, read-out: efficacy
row,Structure (SMILES),pest or weed control at 500 ppm [%]
1,OC(Cc1cc(Cl)ncc1Cl)(Cn1cncc1Cl)C1(Cl)CC1 (stereo not drawn) [Example I-17],80 to 89
2,Cc1cc(F)ccc1CC(O)(Cn1cncc1Cl)C1(Cl)CC1 (stereo not drawn) [Example I-155],90 to 100
3,CC1(C(O)(Cc2cccc(F)c2F)Cn2cncc2C#N)CC1 (stereo not drawn) [Example I-144],90 to 100
4,Cc1ccc(CC(O)(Cn2cncc2C#N)C2(Cl)CC2)c(F)c1 (stereo not drawn) [Example I-107],90 to 100

# Tested on: Puccinia recondita
# Test: In vivo preventive test on Puccinia recondita (brown rust on wheat), Examples C and R3
# Details: Puccinia recondita, 264 h; 500 ppm of active ingredient; wheat, preventive spray, evaluated 11 days after inoculation; read-out: efficacy
row,Structure (SMILES),pest or weed control at 500 ppm [%]
1,OC(Cc1cc(Cl)ncc1Cl)(Cn1cncc1Cl)C1(Cl)CC1 (stereo not drawn) [Example I-17],80 to 89
2,Cc1cc(F)ccc1CC(O)(Cn1cncc1Cl)C1(Cl)CC1 (stereo not drawn) [Example I-155],80 to 89
3,CC1(C(O)(Cc2cccc(F)c2F)Cn2cncc2C#N)CC1 (stereo not drawn) [Example I-144],90 to 100
4,Cc1ccc(CC(O)(Cn2cncc2C#N)C2(Cl)CC2)c(F)c1 (stereo not drawn) [Example I-107],80 to 89
5,N#Cc1cncn1CC(O)(Cc1ccccc1Cl)CC1CC1 (stereo not drawn) [Example I-84],90 to 100
6,N#Cc1cncn1CC(O)(Cc1ccc(F)c(Cl)c1F)C1(Cl)CC1 (stereo not drawn) [Example I-101],90 to 100
7,N#Cc1cncn1CC(O)(Cc1ccc(Cl)cc1)C1(Cl)CC1 (stereo not drawn) [Example I-64],90 to 100

# Tested on: Pyrenophora teres
# Test: In vivo preventive test on Pyrenophora teres (net blotch on barley), Examples D, Q2 and R4
# Details: Pyrenophora teres, 336 h, 500 ppm of active ingredient, preventive spray, evaluated 14 days after inoculation, read-out: efficacy
row,Structure (SMILES),pest or weed control at 500 ppm [%]
1,OC(Cc1cc(Cl)ncc1Cl)(Cn1cncc1Cl)C1(Cl)CC1 (stereo not drawn) [Example I-17],90 to 100
2,Cc1cc(F)ccc1CC(O)(Cn1cncc1Cl)C1(Cl)CC1 (stereo not drawn) [Example I-155],70 to 79
3,CC1(C(O)(Cc2cccc(F)c2F)Cn2cncc2C#N)CC1 (stereo not drawn) [Example I-144],90 to 100
4,Cc1ccc(CC(O)(Cn2cncc2C#N)C2(Cl)CC2)c(F)c1 (stereo not drawn) [Example I-107],90 to 100
5,N#Cc1cncn1CC(O)(Cc1ccccc1Cl)CC1CC1 (stereo not drawn) [Example I-84],80 to 89
6,N#Cc1cncn1CC(O)(Cc1ccc(F)c(Cl)c1F)C1(Cl)CC1 (stereo not drawn) [Example I-101],90 to 100

# Tested on: Septoria tritici
# Test: In vivo preventive test on Septoria tritici (leaf spot on wheat), Examples E, Q3 and R5
# Details: Zymoseptoria tritici, 576 h, 500 ppm of active ingredient; wheat, preventive spray, evaluated 24 days after inoculation; read-out: efficacy
row,Structure (SMILES),pest or weed control at 500 ppm [%]
1,OC(Cc1cc(Cl)ncc1Cl)(Cn1cncc1Cl)C1(Cl)CC1 (stereo not drawn) [Example I-17],90 to 100
2,Cc1cc(F)ccc1CC(O)(Cn1cncc1Cl)C1(Cl)CC1 (stereo not drawn) [Example I-155],90 to 100
3,CC1(C(O)(Cc2cccc(F)c2F)Cn2cncc2C#N)CC1 (stereo not drawn) [Example I-144],90 to 100
4,Cc1ccc(CC(O)(Cn2cncc2C#N)C2(Cl)CC2)c(F)c1 (stereo not drawn) [Example I-107],90 to 100
5,N#Cc1cncn1CC(O)(Cc1ccccc1Cl)CC1CC1 (stereo not drawn) [Example I-84],90 to 100
6,N#Cc1cncn1CC(O)(Cc1ccc(F)c(Cl)c1F)C1(Cl)CC1 (stereo not drawn) [Example I-101],90 to 100
7,N#Cc1cncn1CC(O)(Cc1ccc(Cl)cc1)C1(Cl)CC1 (stereo not drawn) [Example I-64],90 to 100

# Tested on: Sphaerotheca fuliginea
# Test: In vivo preventive test on Sphaerotheca fuliginea (powdery mildew on cucurbits), Examples F and R6
# Details: Podosphaera fuliginea, 360 h; 500 ppm of active ingredient; gherkin, preventive spray, evaluated 15 days after inoculation; read-out: efficacy
row,Structure (SMILES),pest or weed control at 500 ppm [%]
1,OC(Cc1cc(Cl)ncc1Cl)(Cn1cncc1Cl)C1(Cl)CC1 (stereo not drawn) [Example I-17],90 to 100
2,Cc1cc(F)ccc1CC(O)(Cn1cncc1Cl)C1(Cl)CC1 (stereo not drawn) [Example I-155],90 to 100
3,CC1(C(O)(Cc2cccc(F)c2F)Cn2cncc2C#N)CC1 (stereo not drawn) [Example I-144],90 to 100
4,Cc1ccc(CC(O)(Cn2cncc2C#N)C2(Cl)CC2)c(F)c1 (stereo not drawn) [Example I-107],90 to 100
5,N#Cc1cncn1CC(O)(Cc1ccccc1Cl)CC1CC1 (stereo not drawn) [Example I-84],90 to 100
6,N#Cc1cncn1CC(O)(Cc1ccc(F)c(Cl)c1F)C1(Cl)CC1 (stereo not drawn) [Example I-101],90 to 100
7,N#Cc1cncn1CC(O)(Cc1ccc(Cl)cc1)C1(Cl)CC1 (stereo not drawn) [Example I-64],90 to 100

# Tested on: Uromyces appendiculatus
# Test: In vivo preventive test on Uromyces appendiculatus (bean rust), Examples G and R7
# Details: 264 h, 500 ppm of active ingredient, bean, preventive spray, evaluated 11 days after inoculation, read-out: efficacy
row,Structure (SMILES),pest or weed control at 500 ppm [%]
1,OC(Cc1cc(Cl)ncc1Cl)(Cn1cncc1Cl)C1(Cl)CC1 (stereo not drawn) [Example I-17],90 to 100
2,Cc1cc(F)ccc1CC(O)(Cn1cncc1Cl)C1(Cl)CC1 (stereo not drawn) [Example I-155],90 to 100
3,CC1(C(O)(Cc2cccc(F)c2F)Cn2cncc2C#N)CC1 (stereo not drawn) [Example I-144],90 to 100
4,Cc1ccc(CC(O)(Cn2cncc2C#N)C2(Cl)CC2)c(F)c1 (stereo not drawn) [Example I-107],80 to 89
5,N#Cc1cncn1CC(O)(Cc1ccccc1Cl)CC1CC1 (stereo not drawn) [Example I-84],90 to 100
6,N#Cc1cncn1CC(O)(Cc1ccc(F)c(Cl)c1F)C1(Cl)CC1 (stereo not drawn) [Example I-101],90 to 100
7,N#Cc1cncn1CC(O)(Cc1ccc(Cl)cc1)C1(Cl)CC1 (stereo not drawn) [Example I-64],90 to 100

# Tested on: Alternaria solani
# Test: In vivo preventive Alternaria test (tomatoes), Example H
# Details: 72 h, 100 ppm of active ingredient, preventive spray, evaluated 3 days after inoculation, read-out: efficacy
row,Structure (SMILES),pest or weed control at 100 ppm [%]
1,OC(Cc1cc(Cl)ncc1Cl)(Cn1cncc1Cl)C1(Cl)CC1 (stereo not drawn) [Example I-17],90 to 100
2,Cc1cc(F)ccc1CC(O)(Cn1cncc1Cl)C1(Cl)CC1 (stereo not drawn) [Example I-155],90 to 100
3,Cc1ccc(CC(O)(Cn2cncc2C#N)C2(Cl)CC2)c(F)c1 (stereo not drawn) [Example I-107],90 to 100
4,N#Cc1cncn1CC(O)(Cc1ccc(F)c(Cl)c1F)C1(Cl)CC1 (stereo not drawn) [Example I-101],90 to 100

# Tested on: Phakopsora pachyrhizi
# Test: In vivo preventive Phakopsora test (soybeans), Example I
# Details: 168 h, 100 ppm of active ingredient, preventive spray, evaluated 7 days after inoculation, read-out: efficacy
row,Structure (SMILES),pest or weed control at 100 ppm [%]
1,OC(Cc1cc(Cl)ncc1Cl)(Cn1cncc1Cl)C1(Cl)CC1 (stereo not drawn) [Example I-17],90 to 100
2,Cc1cc(F)ccc1CC(O)(Cn1cncc1Cl)C1(Cl)CC1 (stereo not drawn) [Example I-155],90 to 100
3,Cc1ccc(CC(O)(Cn2cncc2C#N)C2(Cl)CC2)c(F)c1 (stereo not drawn) [Example I-107],80 to 89
4,N#Cc1cncn1CC(O)(Cc1ccc(F)c(Cl)c1F)C1(Cl)CC1 (stereo not drawn) [Example I-101],90 to 100

# Tested on: Blumeria graminis fsp. hordei
# Test: In vivo preventive Blumeria test (barley), Example K
# Details: 168 h, 500 ppm of active ingredient, preventive spray, evaluated 7 days after inoculation, read-out: efficacy
# Source text: After the spray coating has been dried, the plants are dusted with spores of Blumeria graminis fsp. hordei.
row,Structure (SMILES),pest or weed control at 500 ppm [%]
1,OC(Cc1cc(Cl)ncc1Cl)(Cn1cncc1Cl)C1(Cl)CC1 (stereo not drawn) [Example I-17],70 to 79
2,CC1(C(O)(Cc2cccc(F)c2F)Cn2cncc2C#N)CC1 (stereo not drawn) [Example I-144],90 to 100
3,N#Cc1cncn1CC(O)(Cc1ccccc1Cl)CC1CC1 (stereo not drawn) [Example I-84],90 to 100
4,N#Cc1cncn1CC(O)(Cc1ccc(F)c(Cl)c1F)C1(Cl)CC1 (stereo not drawn) [Example I-101],90 to 100
5,N#Cc1cncn1CC(O)(Cc1ccc(Cl)cc1)C1(Cl)CC1 (stereo not drawn) [Example I-64],90 to 100

# Tested on: Fusarium graminearum
# Test: whole plant or invertebrate
# Format: in vivo
# Details: in Hordeum vulgare, 120 h, read-out: efficacy
row,Structure (SMILES),pest or weed control at 500 ppm [%]
1,CC1(C(O)(Cc2cccc(F)c2F)Cn2cncc2C#N)CC1 (stereo not drawn) [Example I-144],90 to 100
2,N#Cc1cncn1CC(O)(Cc1ccc(Cl)cc1)C1(Cl)CC1 (stereo not drawn) [Example I-64],80 to 89

# Tested on: Pyricularia oryzae
# Test: whole plant or invertebrate
# Format: in vivo
# Details: 192 h, read-out: efficacy
row,Structure (SMILES),pest or weed control at 500 ppm [%]
1,OC(Cc1cc(Cl)ncc1Cl)(Cn1cncc1Cl)C1(Cl)CC1 (stereo not drawn) [Example I-17],90 to 100
2,CC1(C(O)(Cc2cccc(F)c2F)Cn2cncc2C#N)CC1 (stereo not drawn) [Example I-144],70 to 79
3,N#Cc1cncn1CC(O)(Cc1ccccc1Cl)CC1CC1 (stereo not drawn) [Example I-84],70 to 79

# Tested on: Venturia inaequalis
# Test: In vivo preventive Venturia test (apples), Example J
# Details: 240 h, read-out: efficacy
# Protocol: After the spray coating has dried on, the plants are inoculated with an aqueous conidia suspension of the causal agent of apple scab (Venturia inaequalis) and then remain for 1 day in an incubation cabinet at approximately 20° C. and a relative atmospheric humidity of 100%.
# The plants are then placed in a greenhouse at approximately 21° C. and a relative atmospheric humidity of approximately 90%.
# The test is evaluated 10 days after the inoculation.
row,Structure (SMILES),pest or weed control at 100 ppm [%]
1,OC(Cc1cc(Cl)ncc1Cl)(Cn1cncc1Cl)C1(Cl)CC1 (stereo not drawn) [Example I-17],90 to 100
2,Cc1cc(F)ccc1CC(O)(Cn1cncc1Cl)C1(Cl)CC1 (stereo not drawn) [Example I-155],90 to 100
3,Cc1ccc(CC(O)(Cn2cncc2C#N)C2(Cl)CC2)c(F)c1 (stereo not drawn) [Example I-107],80 to 89
4,N#Cc1cncn1CC(O)(Cc1ccc(F)c(Cl)c1F)C1(Cl)CC1 (stereo not drawn) [Example I-101],80 to 89
